Starred links: 1 amine or outer side, 2 acyl side, 3 side chain; linkers in the order of their positions; H or OH if unused. Positions of bridges follow the written chain, without caps; N, C: chain ends. Non-standard residues stand in square brackets, D forms with d. Residues, ends and D or L forms follow the SMILES beside them. *: point of attachment. hPhe(3,5-F2-4-CF3) = N[C@@H](CCc1cc(F)c(C(F)(F)F)c(F)c1)C(=O)O; hPhe(3-Cl-4-CF3) = N[C@@H](CCc1ccc(C(F)(F)F)c(Cl)c1)C(=O)O; NMePhe(4-CF3) = CN[C@@H](Cc1ccc(C(F)(F)F)cc1)C(=O)O; NMePhe(3,4-F2) = CN[C@@H](Cc1ccc(F)c(F)c1)C(=O)O; NMePhe(4-Me) = CN[C@@H](Cc1ccc(C)cc1)C(=O)O; X11 = CN([C@@H](CCc1cccnc1)C(=O)[*:2])[*:1]; NMePhe(4-F) = CN[C@@H](Cc1ccc(F)cc1)C(=O)O; NMePhe(2-Me) = CN[C@@H](Cc1ccccc1C)C(=O)O; NMeGly(cPent) = CN[C@H](C(=O)O)C1CCCC1; NMeCha = CN[C@@H](CC1CCCCC1)C(=O)O; NMeChg = CN[C@H](C(=O)O)C1CCCCC1; NMeI = CC[C@H](C)[C@H](NC)C(=O)O; dNMeF = CN[C@H](Cc1ccccc1)C(=O)O; NMeD = CN[C@@H](CC(=O)O)C(=O)O; NMeL = CN[C@@H](CC(C)C)C(=O)O; Morpholide = C1CN(*)CCO1; NMeA = CN[C@@H](C)C(=O)O; Piperidide = C1CCN(*)CC1; Ac5c = NC1(C(=O)O)CCCC1; Aze = O=C(O)[C@@H]1CCN1; Ac4c = NC1(C(=O)O)CCC1; Sar = CNCC(=O)O
target: T1, Kras and SOS1 (biotin-tagged human Kras loaded with GDP, His-tagged human SOS1) (Homo sapiens, UniProt P01116, G12D); experiment: Protein-protein interaction inhibition between Kras and SOS1 (KrasGl2D-SOS PPI) using AlphaScreen; type: binding; details: AlphaScreen; biotin-tagged human Kras loaded with GDP, His-tagged human SOS1; read-out: KRAS G12D-SOS PPI IC50
T1 construct: made in house; host or cells: E. coli (stated for Kras only)
T1 sequence (P01116 1-188 isoform P01116-2 G12D): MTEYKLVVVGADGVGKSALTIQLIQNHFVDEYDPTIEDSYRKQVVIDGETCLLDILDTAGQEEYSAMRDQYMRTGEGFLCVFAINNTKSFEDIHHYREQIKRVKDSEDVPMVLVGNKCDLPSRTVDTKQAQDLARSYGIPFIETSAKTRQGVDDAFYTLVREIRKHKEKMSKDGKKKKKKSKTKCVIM
Method in brief: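 Binding between SOS1 and Kras is detected as bead-proximity luminescence: illuminate Ni-conjugated donors (680 nm), collect 520-620 nm emission from streptavidin-conjugated acceptors; Kras carries biotin and GDP loaded after purification, SOS1 carries a His tag.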

Row | Compound | IC50
1 | CC[C@H](C)[C@@H]1NC(=O)[C@H](CC(C)C)N(C)C(=O)C[C@@H](C(=O)N2CCOCC2)N(C)C(=O)[C@H](C2CCCCC2)N(C)C(=O)C2(CCC2)NC(=O)[C@@H]2CCCN2C(=O)[C@H](CCc2ccc(C(F)(F)F)c(Cl)c2)NC(=O)CN(C)C(=O)[C@H](CC2CCCCC2)N(C)C(=O)CN(C)C(=O)CN(C)C1=O [Compound 1875] ([NMeL]I[Sar][Sar][NMeCha][Sar][hPhe(3-Cl-4-CF3)]P[Ac4c][NMeChg][NMeD]-Morpholide; lactam N-11) | 0.42 nM
2 | CC[C@H](C)[C@@H]1NC(=O)[C@H](CC(C)C)N(C)C(=O)C[C@@H](C(=O)N2CCCCC2)N(C)C(=O)[C@H]([C@@H](C)CC)N(C)C(=O)C2(CCCC2)NC(=O)[C@H](Cc2ccc(F)cc2)N(C)C(=O)[C@H](CCc2ccc(C(F)(F)F)c(Cl)c2)NC(=O)CN(C)C(=O)[C@H](Cc2ccc(C)cc2)N(C)C(=O)[C@@H]2CCN2C(=O)[C@H](C)N(C)C1=O [Compound 1876] ([NMeL]I[NMeA][Aze][NMePhe(4-Me)][Sar][hPhe(3-Cl-4-CF3)][NMePhe(4-F)][Ac5c][NMeI][NMeD]-Piperidide; lactam N-11) | 98 nM
3 | CC[C@H](C)[C@@H]1NC(=O)[C@H](C)N(C)C(=O)C[C@@H](C(=O)N(C)C)N(C)C(=O)[C@H]([C@@H](C)CC)N(C)C(=O)C2(CCCC2)NC(=O)[C@H](Cc2ccc(F)c(F)c2)N(C)C(=O)[C@H](CCc2ccc(C(F)(F)F)c(Cl)c2)NC(=O)CN(C)C(=O)[C@H](Cc2ccc(C)cc2)N(C)C(=O)[C@@H]2CCN2C(=O)[C@H](C)N(C)C1=O [Compound 1878] ([NMeA]I[NMeA][Aze][NMePhe(4-Me)][Sar][hPhe(3-Cl-4-CF3)][NMePhe(3,4-F2)][Ac5c][NMeI][NMeD]-NMe2; lactam N-11) | 8.8 nM
4 | CC[C@H](C)[C@@H]1NC(=O)[C@H](CC(C)C)N(C)C(=O)C[C@@H](C(=O)N(C)C)N(C)C(=O)[C@H](C2CCCC2)N(C)C(=O)C2(CCCC2)NC(=O)[C@H](Cc2ccccc2C)N(C)C(=O)[C@H](CCc2ccc(C(F)(F)F)c(Cl)c2)NC(=O)CN(C)C(=O)[C@H](CC2CCCCC2)N(C)C(=O)[C@@H]2CCN2C(=O)[C@H](C)N(C)C1=O [Compound 1880] ([NMeL]I[NMeA][Aze][NMeCha][Sar][hPhe(3-Cl-4-CF3)][NMePhe(2-Me)][Ac5c][NMeGly(cPent)][NMeD]-NMe2; lactam N-11) | 13 nM
5 | CC[C@H](C)[C@@H]1NC(=O)[C@H](CC(C)C)N(C)C(=O)C[C@@H](C(=O)N(C)C)N(C)C(=O)[C@H]([C@@H](C)CC)N(C)C(=O)C2(CCCC2)NC(=O)[C@H](Cc2ccc(F)cc2)N(C)C(=O)[C@H](CCc2cc(F)c(C(F)(F)F)c(F)c2)NC(=O)CN(C)C(=O)[C@H](Cc2ccc(C(F)(F)F)cc2)N(C)C(=O)[C@@H]2CCN2C(=O)[C@H](C)N(C)C1=O [Compound 1882] ([NMeL]I[NMeA][Aze][NMePhe(4-CF3)][Sar][hPhe(3,5-F2-4-CF3)][NMePhe(4-F)][Ac5c][NMeI][NMeD]-NMe2; lactam N-11) | 9.7 nM
6 | CC[C@H](C)[C@@H]1NC(=O)[C@H](C)N(C)C(=O)C[C@@H](C(=O)N2CCCCC2)N(C)C(=O)[C@H]([C@@H](C)CC)N(C)C(=O)C2(CCCC2)NC(=O)[C@H](Cc2ccc(F)cc2)N(C)C(=O)[C@H](CCc2ccc(C(F)(F)F)c(Cl)c2)NC(=O)CN(C)C(=O)[C@H](Cc2ccc(C)cc2)N(C)C(=O)[C@@H]2CCN2C(=O)[C@H](C)N(C)C1=O [Compound 1885] ([NMeA]I[NMeA][Aze][NMePhe(4-Me)][Sar][hPhe(3-Cl-4-CF3)][NMePhe(4-F)][Ac5c][NMeI][NMeD]-Piperidide; lactam N-11) | 32 nM
7 | CC[C@H](C)[C@@H]1NC(=O)[C@H](CC(C)C)N(C)C(=O)C[C@@H](C(=O)N(C)C)N(C)C(=O)[C@H]([C@@H](C)CC)N(C)C(=O)C2(CCCC2)NC(=O)[C@H](CCc2cccnc2)N(C)C(=O)[C@H](CCc2ccc(C(F)(F)F)c(Cl)c2)NC(=O)CN(C)C(=O)[C@H](Cc2ccc(C)cc2)N(C)C(=O)[C@@H]2CCN2C(=O)[C@H](C)N(C)C1=O [Compound 1886] ([NMeL]I[NMeA][Aze][NMePhe(4-Me)][Sar][hPhe(3-Cl-4-CF3)][X11][Ac5c][NMeI][NMeD]-NMe2; lactam N-11) | 0.93 nM
8 | CC[C@H](C)[C@@H]1NC(=O)[C@H](C)N(C)C(=O)C[C@@H](C(=O)N2CCCCC2)N(C)C(=O)[C@H]([C@@H](C)CC)N(C)C(=O)C2(CCCC2)NC(=O)[C@@H](Cc2ccccc2)N(C)C(=O)[C@H](CCc2cc(F)c(C(F)(F)F)c(F)c2)NC(=O)CN(C)C(=O)[C@H](Cc2ccc(C)cc2)N(C)C(=O)[C@@H]2CCN2C(=O)[C@H](C)N(C)C1=O [Compound 1887] ([NMeA]I[NMeA][Aze][NMePhe(4-Me)][Sar][hPhe(3,5-F2-4-CF3)][dNMeF][Ac5c][NMeI][NMeD]-Piperidide; lactam N-11) | 180 nM

Reference: patent publication US12371454B2, “Cyclic peptide compound having Kras inhibitory action” (priority 2019, dated 2025)
